The target in this experiment is Tyrosine-protein kinase transforming protein Src (Rous sarcoma virus). Kind of experiment: Inhibition of [125I]phosphopeptide binding to Src SH2 domain.

As usually defined, the IC50 is the concentration needed to halve the response being measured.

For the compound `CC[C@H](C)[C@H](NC(=O)[C@H](CCC(=O)O)NC(=O)[C@H](CCC(=O)O)NC(=O)[C@@H](CC(=O)O)Cc1ccc(OP(=O)(O)O)cc1)C(=O)N[C@@H](CCC(=O)O)C(=O)O`, the IC50 came to 0.4 µM.
In the case of `CN(CCCC1CCCCC1)C(=O)[C@H](CCC(=O)O)NC(=O)NCc1ccc(OP(=O)(O)O)cc1`, the IC50 came out at 12 µM.

These data come from ChEMBL document CHEMBL1130428, “Design, synthesis, and cocrystal structure of a nonpeptide Src SH2 domain ligand” (J Med Chem, 1997).
